36 compounds from ChEMBL document CHEMBL1629445, “Synthesis and evaluation of azetidinone analogues of combretastatin A-4 as tubulin targeting agents” (J Med Chem, 2010) can be followed below.

For assay [1], the system named is MDA-MB-231. The assay can be described thus: Antiproliferative activity against human MDA-MB-231 cells after 72 hrs by MTT assay. The conditions noted are these: MDA-MB-231, 72 h. The assay is classed as functional, cell-based.
The nature of assay [2]: Cytotoxicity against in CD1 mouse mammary epithelial cells after 72 hrs by alamar blue dye assay. The conditions noted are these: CD1, Epithelial cell. Format: cell-based.
A short description of assay [3]: Growth inhibition of human NCI60 cells. The assay is classed as functional.
Assay [4] concerns MCF7. In words: cells. Particulars: Homo sapiens, MCF7, 72 h.

The structures appear in SMILES notation.

For `COc1ccc([C@@H]2[C@@H](c3ccccc3)C(=O)N2c2cc(OC)c(OC)c(OC)c2)cc1O`, the results for the IC50 in assay [1], in assay [2] and in assay [4] were 28.8 nM, above 10 µM and 9.6 nM, respectively. The compound also displayed a 50% growth inhibitory concentration (GI50) in assay [3] of 24 nM.

For the compound `COc1ccc([C@@H]2[C@@H](c3ccc(OC)c(OC)c3)C(=O)N2c2cc(OC)c(OC)c(OC)c2)cc1`, half-maximal inhibition in assay [4] (IC50) required 223 nM.

For the compound `COc1ccc([C@@H]2[C@@H](c3ccc(F)cc3)C(=O)N2c2cc(OC)c(OC)c(OC)c2)cc1`, the IC50 in assay [1] stood at 228 nM; in assay [4], 42.3 nM.

Consider `COc1ccc([C@@H]2[C@@H](c3ccc(F)cc3)C(=O)N2c2cc(OC)c(OC)c(OC)c2)cc1N`, for which the IC50 in assay [1] came out at 80.8 nM; in assay [4] it was 55.3 nM.

In the case of `COc1ccc([C@@H]2[C@@H](c3ccc(C)cc3)C(=O)N2c2cc(OC)c(OC)c(OC)c2)cc1`, the IC50 in assay [4] came out at 315 nM.

`COc1ccc([C@@H]2[C@@H](c3ccccc3)C(=O)N2c2cc(OC)c(OC)c(OC)c2)cc1`: the IC50 in assay [1] was found to be 78.2 nM; in assay [4] it was 34.4 nM.

As to `COc1ccc([C@@H]2[C@@H](c3ccc(F)c(F)c3)C(=O)N2c2cc(OC)c(OC)c(OC)c2)cc1`, the IC50 in assay [4] amounted to 314 nM.

On to `COc1ccc([C@@H]2[C@@H](c3ccc(O)cc3)C(=O)N2c2cc(OC)c(OC)c(OC)c2)cc1`, for which the IC50 turned out to be 158 nM in assay [1] and 59.1 nM in assay [4].

For the compound `COc1ccc([C@@H]2[C@@H](c3cc(OC)c(OC)c(OC)c3)C(=O)N2c2ccccc2)cc1`, the IC50 in assay [4] was determined as 43100 nM.

In the case of `COc1ccc([C@@H]2[C@@H](c3ccccc3)C(=O)N2c2cc(OC)c(OC)c(OC)c2)cc1N`, the IC50 was found to be 429 nM in assay [1] and 65.3 nM in assay [4].

Turning to `COc1ccc([C@@H]2[C@@H](c3ccc(F)cc3)C(=O)N2c2cc(OC)c(OC)c(OC)c2)cc1[N+](=O)[O-]`, in assay [4], the concentration for half-maximal inhibition (IC50) is 1360 nM.

As to `COc1ccc([C@@H]2[C@@H](c3ccccc3)C(=S)N2c2cc(OC)c(OC)c(OC)c2)cc1`, half-maximal inhibition in assay [4] (IC50) required 720 nM.

Take `COc1ccc([C@@H]2[C@@H](c3ccc(C(F)(F)F)cc3)C(=O)N2c2cc(OC)c(OC)c(OC)c2)cc1`: the IC50 in assay [4] was 1660 nM.

`COc1ccc([C@@H]2[C@@H](c3cccc(OC)c3)C(=O)N2c2cc(OC)c(OC)c(OC)c2)cc1` showed an IC50 in assay [4] of 326 nM.

`COc1ccc([C@@H]2[C@@H](c3ccc(Cl)c(Cl)c3)C(=O)N2c2cc(OC)c(OC)c(OC)c2)cc1` returned an IC50 in assay [4] of 3360 nM.

As to `COc1ccc([C@@H]2[C@@H](c3ccc(N)cc3)C(=O)N2c2cc(OC)c(OC)c(OC)c2)cc1N`, in assay [4], the 50% inhibitory concentration (IC50) was found to be 30.9 nM.

Turning to `COc1ccc([C@@H]2[C@@H](c3ccc(O)cc3)C(=O)N2c2cc(OC)c(OC)c(OC)c2)cc1N`, the IC50 in assay [1] stood at 1680 nM; in assay [4] it was 39.5 nM.

With `COc1ccc([C@@H]2[C@@H](c3ccc(N)cc3)C(=O)N2c2cc(OC)c(OC)c(OC)c2)cc1`, the values for the IC50 in assay [1] and in assay [4] were 224 nM and 50.8 nM, respectively.

As for `COc1ccc(N2C(=O)[C@H](c3ccccc3)[C@H]2c2cc(OC)c(OC)c(OC)c2)cc1`, the IC50 in assay [4] was determined as 43100 nM.

Regarding `COc1ccc([C@@H]2[C@@H](c3cc(OC)c(OC)c(OC)c3)C(=O)N2c2cc(OC)c(OC)c(OC)c2)cc1`, half-maximal inhibition in assay [4] (IC50) required 7120 nM.

`COc1ccc([C@@H]2[C@@H](c3ccc(SC)cc3)C(=O)N2c2cc(OC)c(OC)c(OC)c2)cc1` displayed an IC50 in assay [4] of 448 nM.

For `COc1ccc([C@@H]2[C@@H](c3ccc(OCc4ccccc4)cc3)C(=O)N2c2cc(OC)c(OC)c(OC)c2)cc1`, the IC50 in assay [4] is 7990 nM. Compared with the last compound, the IC50 is about 18-fold higher.

In the case of `COC(=O)C(c1ccccc1)[C@H](Nc1cc(OC)c(OC)c(OC)c1)c1ccc(OC)c(O)c1` (some centres not stated), in assay [4], the IC50 was above 100000 nM.

In assay [4], `COc1ccc([C@@H]2[C@@H](c3ccc([N+](=O)[O-])cc3)C(=O)N2c2cc(OC)c(OC)c(OC)c2)cc1` gave an IC50 of 486 nM. That is a sub-micromolar value.

`COc1ccc([C@H]2C(=O)N(c3ccccc3)[C@@H]2c2cc(OC)c(OC)c(OC)c2)cc1`: half-maximal inhibition in assay [4] (IC50) was put at 37800 nM.

`COc1ccc([C@H]2C(=O)N(c3cc(OC)c(OC)c(OC)c3)[C@@H]2c2ccc(OC)cc2)cc1`: in assay [3], growth was halved (GI50) at 210 nM. In addition, in assay [4], the IC50 worked out at 182 nM.

Turning to `COc1ccc([C@@H]2[C@@H](c3ccc(F)cc3)C(=O)N2c2cc(OC)c(OC)c(OC)c2)cc1O`, the values for the IC50 in assay [1] and in assay [4] were 107 nM and 65.7 nM, respectively.

Take `COc1ccc([C@@H]2[C@@H](c3cccc(O)c3)C(=O)N2c2cc(OC)c(OC)c(OC)c2)cc1`: 68.9 nM corresponded to half-maximal inhibition in assay [4] (IC50).

In assay [4], `COc1ccc([C@@H]2[C@@H](c3ccccc3OC)C(=O)N2c2cc(OC)c(OC)c(OC)c2)cc1` displayed a half-maximal inhibitory concentration (IC50) of 700 nM.

With `COc1ccc(/C=C\c2cc(OC)c(OC)c(OC)c2)cc1O` [COMBRETASTATIN A4], the IC50 in assay [1] was 43 nM; in assay [2] it was above 10 µM; in assay [4] it was 5.2 nM.

Consider `COc1ccc([C@@H]2[C@@H](c3ccc(N)cc3)C(=O)N2c2cc(OC)c(OC)c(OC)c2)cc1O`, for which it took 4.5 nM to reach half-maximal inhibition in assay [4] (IC50).

For the compound `COc1ccc([C@@H]2[C@@H](c3ccc(O)cc3)C(=O)N2c2cc(OC)c(OC)c(OC)c2)cc1O`, the half-maximal inhibitory concentration (IC50) in assay [1] was 176 nM; in assay [2], above 10 µM; in assay [4], 0.8 nM.

On to `COc1ccc([C@@H]2[C@@H](c3ccc(Cl)cc3)C(=O)N2c2cc(OC)c(OC)c(OC)c2)cc1`, for which, in assay [4], the half-maximal inhibitory concentration (IC50) amounted to 305 nM.

`COc1ccc([C@@H]2[C@@H](c3ccccc3)C(=O)N2c2cc(OC)c(OC)c(OC)c2)cc1[N+](=O)[O-]` returned an IC50 in assay [4] of 466 nM. This IC50 lies about 1.5-fold higher than the previous one.

In assay [4], `COc1ccc([C@@H](Nc2cc(OC)c(OC)c(OC)c2)[C@@H](CO)c2ccccc2)cc1O` had an IC50 of 24600 nM. Against the preceding compound, the IC50 is about 53-fold higher.

Consider `COc1ccc([C@@H]2[C@@H](c3ccc(Br)cc3)C(=O)N2c2cc(OC)c(OC)c(OC)c2)cc1`, for which, in assay [4], the IC50 came out at 420 nM.
